For assay [1], the system named is healthy male alcohol drinkers. As to the kind of experiment: Phase 1 study of compound (2) with ethanol: pharmacodynamics (mDEQ-5). The class given is in vivo, human. The text has this: The exploratory pharmacodynamic endpoints included maximum effect (Emax), maximum change from baseline (CFBmax), time to Emax (TEmax), and time-averaged area under the effect curve (TA_AUE), as applicable, derived from Modified 5-item Drug Effects Questionnaire (mDEQ-5) scores.
mDEQ-5 scores were summarized by timepoint and treatment using descriptive statistics. Derived endpoints (Emax, CFBmax, TEmax, TA_AUE, as applicable) were summarized by treatment using descriptive statistics. For each mDEQ-5-derived endpoint, an analysis of variance (ANOVA) was conducted to compare each of active doses to placebo with dose group as a factor. Results were presented in terms of LSMEANS, treatment differences in LSMEANS, 95% CI and p-values.
Ethanol consumption and number of EtOH doses consumed (i.e., number of drinks) during the repeat EtOH administration sessions were summarized using descriptive statistics.

In another assay the target is T1, human ALDH-2 enzyme (Homo sapiens, UniProt P05091).
T1 sequence (P05091 18-517): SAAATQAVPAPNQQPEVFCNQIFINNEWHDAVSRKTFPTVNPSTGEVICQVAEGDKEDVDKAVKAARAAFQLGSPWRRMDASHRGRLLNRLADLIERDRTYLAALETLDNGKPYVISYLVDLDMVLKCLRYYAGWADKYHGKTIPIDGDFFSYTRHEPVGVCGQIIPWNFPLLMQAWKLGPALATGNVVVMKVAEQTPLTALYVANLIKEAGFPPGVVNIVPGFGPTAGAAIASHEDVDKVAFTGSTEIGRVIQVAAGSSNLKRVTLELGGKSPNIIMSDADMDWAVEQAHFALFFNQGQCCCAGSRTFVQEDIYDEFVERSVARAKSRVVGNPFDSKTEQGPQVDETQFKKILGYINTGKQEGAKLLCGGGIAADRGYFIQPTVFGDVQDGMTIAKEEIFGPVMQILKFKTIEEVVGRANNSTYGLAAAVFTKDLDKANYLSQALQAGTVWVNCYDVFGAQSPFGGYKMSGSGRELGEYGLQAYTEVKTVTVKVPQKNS
The note with it: read-out: IC50 ALDH-2; cited from earlier work.

In a further assay the target is T2, hMAO-A (Homo sapiens, UniProt P21397).
T2 sequence (P21397 1-527): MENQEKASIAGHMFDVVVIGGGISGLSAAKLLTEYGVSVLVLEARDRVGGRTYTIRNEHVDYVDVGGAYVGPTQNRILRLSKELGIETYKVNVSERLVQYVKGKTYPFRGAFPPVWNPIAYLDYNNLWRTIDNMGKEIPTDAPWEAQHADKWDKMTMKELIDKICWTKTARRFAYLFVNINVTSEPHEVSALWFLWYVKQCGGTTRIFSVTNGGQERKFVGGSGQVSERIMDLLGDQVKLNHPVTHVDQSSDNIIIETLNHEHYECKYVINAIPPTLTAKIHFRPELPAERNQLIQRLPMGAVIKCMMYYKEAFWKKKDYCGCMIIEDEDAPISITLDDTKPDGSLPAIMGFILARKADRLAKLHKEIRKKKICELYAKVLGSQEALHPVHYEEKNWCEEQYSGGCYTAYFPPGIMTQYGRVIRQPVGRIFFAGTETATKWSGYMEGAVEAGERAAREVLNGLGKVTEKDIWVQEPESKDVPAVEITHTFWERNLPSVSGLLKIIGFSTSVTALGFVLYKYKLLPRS
Conditions: read-out: IC50 hMAO-A; cited from earlier work.

A further assay addresses T3, hMAO-B (Homo sapiens, UniProt P27338).
T3 sequence (P27338 1-520): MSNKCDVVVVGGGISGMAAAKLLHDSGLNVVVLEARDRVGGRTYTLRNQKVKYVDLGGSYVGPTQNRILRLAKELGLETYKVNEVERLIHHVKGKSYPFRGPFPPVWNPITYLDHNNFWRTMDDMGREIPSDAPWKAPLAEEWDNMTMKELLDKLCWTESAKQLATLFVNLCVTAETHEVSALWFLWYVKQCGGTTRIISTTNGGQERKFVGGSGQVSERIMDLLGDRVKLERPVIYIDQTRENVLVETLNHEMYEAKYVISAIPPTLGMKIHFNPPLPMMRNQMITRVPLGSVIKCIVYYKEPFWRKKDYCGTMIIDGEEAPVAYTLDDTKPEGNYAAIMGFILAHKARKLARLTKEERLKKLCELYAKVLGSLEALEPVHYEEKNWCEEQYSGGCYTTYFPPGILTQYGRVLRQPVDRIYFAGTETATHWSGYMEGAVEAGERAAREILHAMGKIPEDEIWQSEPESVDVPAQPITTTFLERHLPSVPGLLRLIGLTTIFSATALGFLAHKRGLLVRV
Conditions: read-out: IC50 hMAO-B; cited from earlier work.

What is called IC50 is the concentration that inhibits the measured activity by half.

With `O=C(NCc1ccc(-c2ccn(COP(=O)(O)O)c(=O)c2)cc1)c1c(Cl)cccc1Cl` [Compound (2), phosphoric acid mono-(4-{4-[(2,6-dichloro-benzoylamino)-methyl]-phenyl}-2-oxo-2H-pyridin-1-ylmethyl) ester], in assay [1] (25-600 mg), the “dose response on pharmacodynamic measures” value is “did not show a consistent dose response”. Further, the “peak VAS scores: feeling any alcohol effects, feeling drunk, liking the effects of alcohol” value in assay [1] (all dose levels vs placebo) was “Peak scores for placebo were higher than scores for all compound (2) dose levels”. Moreover, the IC50 at human ALDH-2 enzyme is over 10 µM; on hMAO-A, over 130 µM; at hMAO-B, over 130 µM.
